The record followed here is EP0569598A1, “BENZOXAZINONE DERIVATIVE” (JAPAN TOBACCO INC., priority 1991, dated 1993).

In test [1] the test system is neutrophiles from the human peripheral blood. Kind of test: Human neutrophile chemotaxis suppressing activity (fMLP, chemotaxis chamber). It is filed as cell-based. To be noted: 10-⁷M fMLP, one hour at 37°C; for Chemotaxis: experiment without compound regarded as 100. As for the experimental part: The neutrophile fraction (60% percoal fraction having neutrophile purity of 90% or more) was taken from the human peripheral blood by means of percoal density gradient centrifugation at 2300 rpm for 20 minutes.
An intercell having a pore diameter of 5 µm, containing 8 x 10⁵ of neutrophiles and the compound of the present invention adjusted in various concentrations was placed in each well of a chemotaxis chamber (KURABO), in which has been added 1300 µl of a medium containing 10-⁷M of formylmethionyl-leucyl-phenylalanine (fMLP), which is a neutrophile chemotaxis factor. After incubating for one hour at 37°C in an incubator containing 5% carbon dioxide, the number of cells migrating from the upper side of the intercell membrane into the lower side of the membrane in the chamber was counted by the following method. That is, the lower side surface of the intercell membrane was washed with PBS for 4 times and fixed with methanol and dyed with hematoxylin-eosin solution. The membrane was removed from the intercell and placed on a slide, dried in air, followed by sealing with Canada balsam. The cell number was microscopically counted in 5 visual fields. Taking average number of the five fields, the average was employed as the number of migrating cells. The value subtracting the migrating cell number in a control experiment containing no fMLP from the cell number in an experiment containing no the compound of the present invention was regarded as 100, the chemotaxis suppressing activity was determined as the following formula: Neutrophilic chemotaxis suppressing activity (%) [formula] = 100 - A/B x 100 [formula] = 100 - (C - D)/(E-D) x 100 [formula] Where: • A: chemotaxis measured in the experiment containing the compound of the present invention; • B: chemotaxis measured in the experiment not containing the compound of the present invention • C: the number of migrating cells measured in the experiment containing both the compound of the present invention and fMLP. • D: the number of migrating cells in the experiment containing neither the compound of the present invention nor fMLP. • E: the number of migrating cells in the experiment containing only fMLP.

For test [2], the target named is T1, bovine pancreatic α-chmotrypsin (CYT) (Bos taurus, UniProt P00766).
T1 construct: bovine pancreatic α-chmotrypsin (CYT); purchased Sigma Co., Ltd
Briefly: CYT inhibitory activity (synthetic substrate, pNA release). It is filed as biochemical. To be noted: pH 8.0; CYT 3.4 nM, substrate 0.273 mM; read-out: IC₅₀ value CYT. How it is done:
(§1) Activities of the Benzoxazine derivatives of the present invention against human leukocyte elastase (HLE), human sputum elastase (HSE), human cathepsin G (HCG), bovine pancreatic α-chmotrypsin (CYT) and bovine pancreatic trypsin (TRY) were measured by the following method.
(§2) A test compound was dissolved in DMSO (for fluorometry) and prepared various concentration of the solution. To each concentration was added 2-fold volume of 0.2M Tris-HCl (pH8.6), thereby obtaining a test solution. Synthetic substrate (Funakoshi, L-1335) was dissolved in DMSO and 2-volume of 0.2M Tris-HCl (pH8.6) was added thereto, thereby obtaining a substrate solution. The reaction was performed using a microplate having 96 wells (Nunk). Six-time reactions were repeated for each concentration. One handred and forty µl of an enzyme solution containing 0.2M Tris-HCl (pH8.6), 30 µl of a test solution and 30 µl of a substrate solution per well of the microplate were respectively pre-incubated at 37°C for 10 minutes. After completion of the incubation, the enzyme solution was mixed with the test sample and incubated for 10 minutes and then the substrate solution was added to perform an enzyme reaction. The absorbance of released P-nitroanilide (PNA) was measured at the wave length of 405 nm by means of a microplate reader (MTP-100; CORONA), thereby determining the substrate decomposition. The rate of the substrate decomposition was shown as an average value of 6 repeated reactions. The inhibitory concentration of a test compound relative to the amount of the substrate decomposition in the reaction mixture without a test compound was regarded as an IC₅₀ value. The final concentration of HLE and a synthesized substrate in the reaction mixture were 5.63 nM and 0.2625 mM, respectively.
a) Enzyme obtaining route CYT was obtained from Sigma Co., Ltd.
Substantially the same method as used in the measurement of the HLE inhibitory activity was used except that a buffer solution (pH 8.0) was used. The final concentration of CYT and synthetic substrate (Funakoshi, L-1010) in a reaction mixture were 3.4 nM and 0.273 mM, respectively.

Test [3] deals with T2, human leukocyte elastase (HLE) (Homo sapiens, UniProt P08246).
T2 construct: the mixed solution was subjected to density gradient centrifugation, thereby obtaining neutrophiles; from tissue; host or cells: neutrophils from human vein blood (buffy coat)
T2 sequence (P08246 30-247 limits assumed): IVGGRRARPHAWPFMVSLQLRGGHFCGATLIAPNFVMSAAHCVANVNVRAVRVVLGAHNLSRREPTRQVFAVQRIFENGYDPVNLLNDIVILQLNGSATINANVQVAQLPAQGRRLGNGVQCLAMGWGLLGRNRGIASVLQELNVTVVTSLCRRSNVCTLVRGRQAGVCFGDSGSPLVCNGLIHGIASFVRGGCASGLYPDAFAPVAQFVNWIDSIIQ
Briefly: HLE inhibitory activity (synthetic substrate, pNA release, absorbance 405 nm). Format: biochemical. The conditions noted are these: pH 8.6; HLE 5.63 nM, substrate 0.2625 mM; 37°C; read-out: IC₅₀ value HLE. As for the experimental part:
as §1
A buffy coat was obtained by subjecting human vein blood to centrifugation. To the buffy coat was added distilled water to make a hypotonic solution, thereby bursting erythrocytes. To the residual blood cell component was added a 33.4% of Conrey 400 solution/9% Ficoll solution (the ratio of the former solution to the latter solution is 10:24), and the mixed solution was subjected to density gradient centrifugation, thereby obtaining neutrophiles. The neutrophile fraction was washed with Hanks' buffer for three times and then cells were recovered and cryopreserved at -80°C until use. The cryopreserved-cells were thawed with warm water at 37°C and suspended in a 9-fold volume of lysis buffer containing 0.1M Tris-HCl (pH7.5), 1M MgCl₂ and 0.1% Brij 35. The suspended cells are destroyed by means of polotoron with ice-cooling. The cell suspension was subjected to centrifugation at 100,000 x g for 1 hour. After removing precipitates, 2-fold volume of a Tris-HCl buffer containing 5 mM Tris-HCl(pH 7.5), 1M NaCl and 1.1% Brij 35 was added to the supernatant, thereby obtaining a crude solution of an enzyme extract. The crude solution was subjected to aprotinine affinity column and extracted with an elution buffer containing […] of glycine-HCl (pH 3.3), 1M NaCl and 0.1% Brij 35, thereby obtaining an active fraction. The obtained active fraction was further subjected to MONO S-ion-exchange chromatography and eluted with 2M NaCl linear gradient. The obtained fraction was dialyzed against 25 mM Tris-HCl (pH8.6) and lyophilized, thereby obtained an enzyme sample.
as §2

In the next test the target is T3, human cathepsin G (HCG) (Homo sapiens, UniProt P08311).
T3 construct: purchased Cosmo Bio Inc
T3 sequence (P08311 21-244): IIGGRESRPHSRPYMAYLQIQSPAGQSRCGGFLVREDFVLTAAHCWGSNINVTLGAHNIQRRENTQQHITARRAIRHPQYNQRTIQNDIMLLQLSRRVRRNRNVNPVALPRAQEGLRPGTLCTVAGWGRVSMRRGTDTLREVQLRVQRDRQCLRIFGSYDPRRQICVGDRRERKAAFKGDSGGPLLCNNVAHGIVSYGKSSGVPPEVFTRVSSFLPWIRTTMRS
Kind of test: HCG inhibitory activity (synthetic substrate, pNA release). Format: biochemical. The conditions noted are these: pH 7.5; HCG 50 nM, substrate 0.5 mM; read-out: IC₅₀ value HCG. As for the experimental part:
as §1, §2
a) Enzyme obtaining route HCG was obtained from Cosmo Bio Inc.
The same method as in the measurement of HLE inhibitory activity was used except that a buffer solution (pH 7.5) was used. The final concentration of HCG and synthetic substrate (Funakoshi, L-1010) in a reaction mixture were 50 nM and 0.5 mM, respectively.

In test [4] the target is T4, human sputum elastase (HSE) (Homo sapiens, UniProt P08246).
T4 construct: human sputum elastase (HSE); purchased Sigma Inc
T4 sequence (P08246 30-267): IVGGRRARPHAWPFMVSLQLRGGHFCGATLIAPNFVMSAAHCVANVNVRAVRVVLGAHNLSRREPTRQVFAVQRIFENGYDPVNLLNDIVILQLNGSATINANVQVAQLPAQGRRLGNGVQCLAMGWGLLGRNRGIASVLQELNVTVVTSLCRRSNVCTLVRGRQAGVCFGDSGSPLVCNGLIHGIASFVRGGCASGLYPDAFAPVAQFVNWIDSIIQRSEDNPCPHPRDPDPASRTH
Kind of test: HSE inhibitory activity (synthetic substrate, pNA release). Format: biochemical. The conditions noted are these: pH 7.0; HSE 10 nM, substrate 0.25 mM; read-out: IC₅₀ value HSE. How it is done:
as §1
as §2, with “The rate of the substrate decomposition was shown as an average value of 6 repeated reactions. The inhibitory concentration of a test compound relative to the amount of the substrate decomposition in the reaction mixture without a test compound was regarded as an IC₅₀ value. The final concentration of HLE and a synthesized substrate in the reaction mixture were 5.63 nM and 0.2625 mM, respectively.” left out

Test [5] addresses T5, bovine pancreatic trypsin (TRY) (Bos taurus, UniProt P00760).
T5 construct: bovine pancreatic trypsin (TRY); purchased Sigma Inc
T5 sequence (P00760 24-246): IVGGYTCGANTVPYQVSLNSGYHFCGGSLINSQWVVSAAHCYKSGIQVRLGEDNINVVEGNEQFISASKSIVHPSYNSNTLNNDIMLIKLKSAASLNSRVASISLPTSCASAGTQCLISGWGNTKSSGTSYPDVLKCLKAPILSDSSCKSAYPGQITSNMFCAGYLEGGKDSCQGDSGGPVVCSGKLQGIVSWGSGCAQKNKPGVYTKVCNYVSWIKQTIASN
Kind of test: TRY inhibitory activity (synthetic substrate, pNA release). It is filed as biochemical. To be noted: pH 7.5; TRY 25 nM, substrate Z-Arg-pNA 1.0 mM; read-out: IC₅₀ value TRY. How it is done:
as §1
as §2, with “The rate of the substrate decomposition was shown as an average value of 6 repeated reactions. The inhibitory concentration of a test compound relative to the amount of the substrate decomposition in the reaction mixture without a test compound was regarded as an IC₅₀ value. The final concentration of HLE and a synthesized substrate in the reaction mixture were 5.63 nM and 0.2625 mM, respectively.” left out

SMILES strings stand for the structures. Some results are limits rather than exact numbers.

As to `Cc1cccc2nc([C@@H](NC(=O)COC(c3ccccc3)c3ccccc3)C(C)C)oc(=O)c12` [Compound 2, 2-[1(S)-[[(diphenylmethoxy)acetyl]amino]-2-methylpropyl]-5-methyl-4H-3,1-benzoxazin-4-one], the figures for the Chemotaxis in test [1] (Concentration 0.125 µM) and in test [1] (Concentration 1.000 µM) were 70.6 and 57.4, respectively. In test [1] (Homo sapiens, 1 h, Concentration 0.125 µM), this compound registered an activity at 0.125 µM of 29.4%. In test [1] (Homo sapiens, 1 h, Concentration 1.000 µM), this compound yielded an activity at 1 µM of 42.6%. Besides, the IC50 in test [2] is 0.83 µM; in test [3] it was 0.22 µM; at human cathepsin G (HCG), > 27.4 µM.

As for `Cc1cccc2nc([C@@H](NC(=O)COC(c3ccccn3)c3ccccn3)C(C)C)oc(=O)c12` [Compound 4], in test [3], the IC50 came to 0.55 µM.

On to `Cc1cccc2nc([C@@H](NC(=O)OCC34CC5CC(CC(C5)C3)C4)C(C)C)oc(=O)c12` [Compound 6, 2-[1(S)-[[(1-adamantyl)methoxy-carbonyl]amino]-2-methylpropyl]-5-methyl-4H-3,1-benzoxazin-4-one], for which the IC50 in test [2] was 1.55 µM; in test [4], 0.26 µM; in test [5], > 12.6 µM; in test [3] it was 0.21 µM; on human cathepsin G (HCG), > 25 µM.

Turning to `Cc1cccc2nc([C@@H](NC(=O)CN(c3ccccc3)c3ccccc3)C(C)C)oc(=O)c12` [Compound 7, 2-{1(S)-[(N,N-diphenyl-glycyl)amino]-2-methylpropyl}-5-methyl-4H-3,1-benzoxazin-4-one], the IC50 in test [3] is 0.79 µM.

For `Cc1cccc2nc([C@@H](NC(=O)CCC(c3ccccc3)c3ccccc3)C(C)C)oc(=O)c12` [Compound 8, 2-{1(S)-[(4,4-diphenylbutyryl)amino]-2-methylpropyl}-5-methyl-4H-3,1-benzoxazin-4-one], in test [3], the IC50 was determined as 0.4 µM.

On to `Cc1cccc2nc([C@@H](NC(=O)CON=C(c3ccccc3)c3ccccn3)C(C)C)oc(=O)c12` [Compound 9, 5-Methyl-2-[2-methyl-1(S)-[[[[[phenyl(2-pyridyl)methylene]amino]oxy]acetyl]amino]propyl]-4H-3,1-benzoxazin-4-one], for which, in test [3], the IC50 was 0.55 µM.
